This note sets out measurements from patent US9149509B2, “Methods for improving neurological outcome after neural injury and neurodegenerative disease” (HENRY FORD HEALTH SYSTEM, priority 2009, dated 2015).

Experiment [1] has as its system experimental autoimmune encephalomyelitis (EAE) mice. In words: Experimental autoimmune encephalomyelitis (EAE) mouse model of multiple sclerosis. Format: in vivo. To be noted: 6 mg/kg IP, up to 30 days, vs saline control, p<0.01, FIG. 9. How it is done: (§1) Effectiveness of treatment with thymosin β4 was tested in stroke (middle cerebral artery occlusion (MCAo)) rats and in experimental autoimmune encephalomyelitis (EAE) mice (a well-established in vivo model for multiple sclerosis). Both the stroke rats and the EAE mice were treated with 6 mg/kg thymosin β4 intraperitoneally (IP) in a volume of 0.3 mL twenty-four hours after stroke or after the day of immunization in the EAE model and then every three days (6 mg/kg IP) for four additional doses. An equal volume of saline was administered (IP) to a group of both stroke rats and EAE mice as a control. Bromodeoxyuridine (BrdU; 100 mg/kg) was administered (IP) daily for seven days, initiated 24 hours after MCAo to label proliferating cells. Behavioral tests (adhesive removable test and NSS (Neurological Severity Score)) were performed immediately before treatment and at days 1, 7, 14, 21, 28, 35, 42, 49, and 56 days after MCAo and up to 30 days in the EAE mouse model. All rats were sacrificed 56 days after MCAo; EAE mice were sacrificed at 30 days.

The subject of experiment [2] is stroke (middle cerebral artery occlusion (MCAo)) rats. Nature of the experiment: Embolic middle cerebral artery occlusion (MCAo) stroke model in rats. Format: in vivo, rat. On the procedure: as §1
[3] abbreviates: embolic stroke rats, 6 mg/kg IP, vs saline control.

Take thymosin β4: in experiment [1], the functional neurological score result is on record as “robust improvement”. For the same substance, the “number of myelinated axons (Bielschowsky and Luxol Fast Blue staining)” value in experiment [2] (after MCAo, treated vs control, p<0.05, FIG. 4) was “increased”. Also, in experiment [2] (after MCAo, treated vs control, p<0.05, FIG. 8), the “cellular proliferation (BrdU expression, number of BrdU immunoreactive cells)” value is listed as “increased”. Moreover, the “number of oligodendrocyte progenitors and matured oligodendrocytes” value in experiment [2] (after MCAo, treated vs control, p<0.05, FIGS. 5-7) is given as “increased”. Also, the “functional improvement in behavioral tests (adhesive removal test, NSS)” value in experiment [2] (beginning at 21 days after stroke onset, 6 mg/kg IP, p<0.05, FIG. 1-2) is “Significant functional improvement”. The “relative increase in BrdU expression in the striatum or myelinated region of the rat brain” value in experiment [2] (embolic stroke rats, 6 mg/kg IP 24 h after stroke, then every three days for four additional doses, sacrificed 56 days after MCAo) is given as 42%. Further, in experiment [2] (setting [3]), the “increase in CNP, a marker of mature oligodendrocytes” value is listed as 11% and the “increase in NG-2, a marker of immature oligodendrocytes” value is given as 47%.
